Target: Angiotensin-converting enzyme (Cavia porcellus)
Assay: Concentration required for 50% inhibition of Angiotensin I converting enzyme

Compound | IC50
O=C(NC(Cc1ccccc1)C(=O)CSCC(=O)N1CCC[C@@H]1C(=O)O)c1ccccc1 (stereo not given in full) | 12 nM
O=C(NC(Cc1ccccc1)C(=O)CNCC(=O)N1CCC[C@@H]1C(=O)O)c1ccccc1 (stereo not given in full) | 960 nM
Cc1ccc(S(=O)(=O)N(CC(=O)C(Cc2ccccc2)NC(=O)c2ccccc2)CC(=O)N2CCC[C@@H]2C(=O)O)cc1 (stereo not given in full) | 22000 nM
O=C(NC(Cc1ccccc1)C(=O)COCC(=O)N1CCC[C@@H]1C(=O)O)c1ccccc1 (stereo not given in full) | 4.4 nM
O=C(NC(Cc1ccccc1)C(=O)CCCC(=O)N1CCC[C@@H]1C(=O)O)c1ccccc1 (stereo not given in full) | 42 nM

— ChEMBL document CHEMBL1122170, “Angiotensin converting enzyme inhibitors: modifications of a tripeptide analogue” (J Med Chem, 1982)
